Patent US5334594A, “Amphoteric tricyclic compound” (Hokoriku Pharmaceutical Co., Ltd., priority 1992, dated 1994)
Where a name gives a salt, the structure may show the parent alone. Read-outs that look alike come from different tables or passages of the source.

Key:
[1] = test system: compound 48/80-induced lethality (antihistaminic (H1) activity); assay: Inhibitory effect on compound 48/80-induced lethality in rats (antihistaminic activity); format: in vivo, rat (male Wistar); settings: Rattus norvegicus, po, 2 h; 1 mg/kg orally one hour before compound 48/80 (1 mg/kg i.v.); survival after two hours; read-out: Survival rate
Experimental: 1. Inhibitory Effects on Compound 48/80-Induced Lethality in Rats (Antihistaminic Activity)
The evaluation of antihistaminic activity was carried out according to the method of Niemegeers et al. (Arch. Int. Pharmacodyn. Ther., 234, 164 (1978)).
Male Wistar rats, 6 weeks of age, were used in the experiments. Compound 48/80 (formaldehyde condensation product of p-methoxy-N-methylphenethylamine) was administered intravenously to rats at a lethal dose of 1 mg/kg. Survival rates were determined according to an all or non criteria by using the numbers of rats that survived after two hours. Test compounds (1 mg/kg) were administered orally to rats one hour before the administration of compound 48/80.

histamine (H1) receptor = biological target: T1, histamine (H1) receptor (Cavia porcellus, UniProt P31389); assay: Inhibitory effects on ex vivo [^3 H]-mepyramine binding to guinea-pig cerebral cortex (degree of penetration into brain); format: in vivo, guinea-pig (male Hartley); settings: for ED50: 2 h, oral, two hours, ex vivo [^3 H]-mepyramine binding, guinea-pig cerebral cortex, read-out: Degree of penetration activity (A) ID50; for Selectivity (C/B): ratio of ID50 (brain penetration, C) to ED50 (antiasthmatic activity, B)
T1 construct: Separated cerebral cortices were homogenized in 50-folds volume of 50 mM Na/K-phosphate buffer (pH 7.4); from tissue; host or cells: guinea-pig cerebral cortex, crude membrane fraction (homogenate)
Experimental: 4. Inhibitory Effects on Ex Vivo [^3 H]-Mepyramine Binding to Guinea-Pig Cerebral Cortex (Degree of Penetration into Brain)
The evaluation of histamine (H1) receptor affinity on guinea-pig cerebral cortex was carried out according to the method of Ahn et al. (Eur. J. Pharmacol., 127, 153 (1986)).
Male Hartley guinea-pigs, 6 weeks of age, were administered orally with test compounds or vehicles. After two hours, animals were killed by exsanguination and brains were rapidly isolated. Separated cerebral cortices were homogenized in 50-folds volume of 50 mM Na/K-phosphate buffer (pH 7.4). These homogenates were used as crude membrane fractions for receptor binding assay. [^3 H]-mepyramine was used as a radio-active ligand. […] The ID50 values (doses which induce 50% inhibition of specific binding of vehicle treated group) were calculated using dose-inhibition curves.

[2] = biological target: muscarinic acetylcholine receptor; assay: Inhibition of [^3 H]-QNB binding to rat cerebral cortex membrane (muscarinic acetylcholine receptor binding assay); settings: -log Ki by Cheng and Prusoff
[3] = test system: histamine-induced bronchoconstriction; assay: Inhibitory effects on histamine-induced bronchoconstriction in anesthetized guinea-pigs (antiasthmatic activity); format: in vivo, guinea-pig (male Hartley); settings: for ED50: Cavia porcellus, 2 h, read-out: Antiasthmatic activity (B) ED50
Experimental: 3. Inhibitory Effects on Histamine-Induced Bronchoconstriction in Anesthetized Guinea-Pigs (Antiasthmatic Activity)
The induction and evaluation of antiasthmatic activity were carried out according to the method of Makino et al. (J. Pharm. Pharmacol., 42, 236 (1990)).
Male Hartley guinea-pigs, 6 weeks of age, were anesthetized with urethane ( 1.5 g/kg, i.p. ). The carotid artery and jugular vein were cannulated to measure arterial blood pressure and to facilitate intravenous histamine administration. The trachea was cannulated and the animals were ventilated using a respiratory pump (60 strokes/min; 4 ml/stroke). Changes in insufflation pressure induced by the administration of histamine (20 μg/kg, i.v.) at a constant airflow were constantly monitored as percentage values based on the maximum pressure (100%) (Bronchospasm tramsducer 7020, Ugo Basile). Test compounds were administered orally to animals two hours before the administration of histamine. The ED50 values (doses which induce 50% inhibition of histamine-induced broncho-constriction compared to inhibition observed in control) were calculated using dose-inhibition curves.

[4] = test system: 48 h homologous passive cutaneous anaphylaxis (PCA); assay: Inhibitory effects on 48 h homologous passive cutaneous anaphylaxis (PCA) in rats (antiallergic activity); format: in vivo, rat (male Wistar); settings: 1 mg/kg orally one hour before antigen challenge
Experimental: 2. Inhibitory Effects on 48 h Homologous Passive Cutaneous Anaphylaxis (PCA) in Rats (Antiallergic Activity)
The induction and evaluation of antiallergic activity were carried out according to the method of Makino et al. (Japan J. Pharmacology, 52, 87 (1990)).
Male Wistar rats, 6 weeks of age, were passively sensitized by intracutaneous injection on the back at a volume of 0.1 ml of 20- or 40-fold diluted anti-DNP-As rat serum. After 48 hours, the animals were challenged by an intravenous injection of 0.5 ml saline solution containing 1 mg of DNP-As and 5 mg of Evans blue. The animals were sacrificed 30 minutes after the challenge and then the extravasated dye was extracted with 1N KOH and acetone. After neutralization with 1N H3 PO4, the amount of dye was determined by measuring the absorbance of the extract at 620 nm. Test compounds (1 mg/kg) were orally administered to rats one hour before the antigen challenge. The inhibitory activity of test compounds were obtained as percent inhibition of PCA by comparing the results obtained from control rats.

[5] = oral, two hours before histamine (20 μg/kg, i.v.), anesthetized guinea-pigs

T1 sequence (P31389 whole entry): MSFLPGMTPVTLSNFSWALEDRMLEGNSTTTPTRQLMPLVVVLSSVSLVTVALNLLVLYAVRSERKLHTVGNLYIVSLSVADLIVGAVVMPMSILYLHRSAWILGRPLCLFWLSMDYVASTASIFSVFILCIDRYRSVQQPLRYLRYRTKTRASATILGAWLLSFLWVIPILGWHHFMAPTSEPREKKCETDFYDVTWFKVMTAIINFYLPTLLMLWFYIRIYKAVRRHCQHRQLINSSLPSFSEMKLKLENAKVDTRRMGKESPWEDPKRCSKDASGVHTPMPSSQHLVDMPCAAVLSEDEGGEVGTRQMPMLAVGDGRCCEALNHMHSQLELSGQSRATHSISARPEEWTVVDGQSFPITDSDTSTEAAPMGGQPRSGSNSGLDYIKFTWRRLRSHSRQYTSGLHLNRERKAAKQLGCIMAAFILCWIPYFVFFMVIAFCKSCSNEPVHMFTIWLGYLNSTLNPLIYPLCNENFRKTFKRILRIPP

SMILES | responders at 1 mg/kg [1] [%] | pKi [2] | Antiallergic activity (A) inhibition (%) [4] [%] | further results
O=C(O)CCN1CCC(=C2c3cc(Cl)ccc3OCc3cccnc32)CC1 [Example 6-(2), 3-[4-(9-Chloro-5,11-dihydrobenz[b]oxepino[4,3-b]pyridin-11-ylidene)piperidino]propionic Acid] | 100 |  |  | 
O=C(O)CCN1CCC(=C2c3ccc(F)cc3OCc3cccnc32)CC1 [Example 2-(2), 3-[4-(8-Fluoro-5,11-dihydrobenz[b]oxepino[4,3-b]pyridin-11-ylidene)piperidino]propionic Acid] | 100 | < 5 | 78 | ED50 (histamine (H1) receptor): 32 mg/kg; Selectivity (C/B) (histamine (H1) receptor): 696; ED50 [3, 5]: 0.046 mg/kg
CCOC(=O)N1CCC(=C2c3ccc(Cl)cc3CCc3cccnc32)CC1 [Reference compound B, Loratadine] | 60 | 6.04 | 38 | ED50 ([3]; po): 0.13 mg/kg
O=C(O)CCN1CCC(=C2c3ccccc3OCc3cccnc32)CC1 [Example 1-(2), 3-[4-(5,11-Dihydrobenz[b]oxepino[4,3-b]pyridin-11-ylidene)piperidino]propionic Acid.Hydrochloride] | 80 |  | 80 | ED50 (histamine (H1) receptor): 36 mg/kg; Selectivity (C/B) (histamine (H1) receptor): 439; ED50 [3, 5]: 0.082 mg/kg
O=C(O)CCN1CCC(=C2c3cccc(Cl)c3OCc3cccnc32)CC1 [Example 4-(2), 3-[4-(7-Chloro-5,11-dihydrobenz[b]oxepino[4,3-b]pyridin-11-ylidene)piperidino]propionic Acid. Hydrochloride] | 100 |  |  | 
CC(=O)N1CCC(=C2c3ccc(Cl)cc3OCc3cccnc32)CC1 [Reference compound C] | 20 | 5.72 | -11 | Antiasthmatic activity (B) ED50 [3, 5]: No effect (1 mg/kg)
O=C(O)CCN1CCC(=C2c3ccccc3Oc3cccnc32)CC1 [Example 8-(2), 3-[4-(10H-benzo[b]pyrano[3,2-b]pyridin-10-ylidene)piperidino]propionic Acid] | 100 |  |  | 
CC(CN1CCC(=C2c3ccc(F)cc3OCc3cccnc32)CC1)C(=O)O (stereo not shown) [Example 14-(2), 3-[4-(8-Fluoro-5,11-dihydrobenz[b]oxepino[4,3-b]pyridin-11-ylidene)piperidino]-2-methylpropionic Acid] | 100 |  |  | 
O=C(O)CCCCCN1CCC(=C2c3ccc(F)cc3OCc3cccnc32)CC1 [Example 12-(2), 6-[4-(8-Fluoro-5,11-dihydrobenz[b]oxepino[4,3-b]pyridin-11-ylidene)piperidino]hexanoic Acid . Hydrochloride] | 100 |  |  | 
O=C(O)CCCN1CCC(=C2c3ccc(Cl)cc3OCc3cccnc32)CC1 [Example 18-(2), 4-[4-(8-Chloro-5,11-dihydrobenz[b]oxepino[4,3-b]pyridin-11-ylidene)piperidino]butyric Acid. Hydrochloride] | 80 |  |  | 
O=C(O)CCCCCN1CCC(=C2c3ccc(Cl)cc3OCc3cccnc32)CC1 [Example 21-(2), 6-[4-(8-Chloro-5,11-dihydrobenz[b]oxepino[4,3-b]pyridin-11-ylidene)piperidino]hexanoic Acid . Hydrochloride] | 100 |  |  | 
O=C(O)CCCN1CCC(=C2c3ccc(F)cc3OCc3cccnc32)CC1 [Example 10-(2), 4-[4-(8-Fluoro-5,11-dihydrobenz[b]oxepino[4,3-b]pyridin-11-ylidene)piperidino]butyric Acid] | 100 |  |  | 
O=C(O)CCN1CCC(=C2c3ccc(Cl)cc3OCc3cccnc32)CC1 [Example 5-(2), 3-[4-(8-Chloro-5,11-dihydrobenz[b]oxepino[4,3-b]pyridin-11-ylidene)piperidino]propionic Acid. Hydrochloride] | 100 | < 5 | 79 | ED50 (histamine (H1) receptor): 53 mg/kg; Selectivity (C/B) (histamine (H1) receptor): 2304; ED50 [3, 5]: 0.023 mg/kg
O=C(O)CCCN1CCC(=C2c3ccc(F)cc3Oc3cccnc32)CC1 [Example 23-(2), 4-[4-(7-Fluoro-10H-benzo[b]pyrano[3,2-b]pyridin-10-ylidene)piperidino]butyric Acid] | 100 |  |  | 
O=C(O)CCN1CCC(=C2c3ccc(F)cc3Oc3cccnc32)CC1 [Example 9-(2), 3-[4-(7-Fluoro-10H-benzo[b]pyrano[3,2-b]pyridin-10-ylidene)piperidino]propionic Acid] | 100 |  |  | 
CN1CCC(=C2c3ccccc3CCc3cccnc32)CC1 [Reference compound A, Azatadine, reference compound] | 60 | 8.47 | 77 | ED50 (histamine (H1) receptor): 0.028 mg/kg; Selectivity (C/B) (histamine (H1) receptor): 28; ED50 [3, 5]: 0.001 mg/kg
O=C(O)CCCCN1CCC(=C2c3ccc(F)cc3OCc3cccnc32)CC1 [Example 11-(2), 5-[4-(8-Fluoro-5,11-dihydrobenz[b]oxepino[4,3-b]pyridin-11-ylidene)piperidino]valetic Acid] | 100 |  |  | 
CCOC(=O)CN1CCC(=C2c3ccc(Cl)cc3CCc3cccnc32)CC1 [Reference compound D, reference compound] | 40 | 5.84 | 41 | ED50 (histamine (H1) receptor): 11 mg/kg; Selectivity (C/B) (histamine (H1) receptor): 38; ED50 [3, 5]: 0.29 mg/kg
O=C(O)CCCCN1CCC(=C2c3ccc(Cl)cc3OCc3cccnc32)CC1 [Example 20-(2), 5-[4-(8-Chloro-5,11-dihydrobenz[b]oxepino[4,3-b]pyridin-11-ylidene)piperidino]valeric Acid. Hydrochloride] | 100 |  |  | 
